Columns and labels:
[1] = system: MM PDX tumor; assay: MM patient-derived tumor xenograft (PDX) model; assay type: in vivo, NOD/SCID mice; settings: IHC and IF, single treatment
Protocol: The biopsy sample was taken from tumor tissue excised from MM patient at Nanjing Hospital of Chinese Medicine affiliated with Nanjing University of Chinese Medicine. The tissue was then cut into 2.5×2.5×2.5 mm^3 pieces and transplanted subcutaneously into 6-week-old NOD/SCID male mice (n = 6 mice in each group) under anesthesia with 1% sodium pentobarbital. […] This process was repeated three times to ensure stable tumor growth. […] Single treatment was administered every three days, while combination treatment was administered every other day.

[2] = system: 5TMM3VT mouse myeloma cells; assay: 5TMM3VT mouse model; assay type: in vivo, C57BL/KaLwRij mice; settings: single treatment; BBA 5 mg/kg, BTZ 1 mg/kg
Protocol: 5TMM3VT mouse myeloma cells (1 × 10^6) were injected through the tail vein into C57BL/KaLwRij mice from Harlan Laboratories (n = 9 per group). The mice were randomly divided into four groups (Ctrl, BBA, BTZ and BBA+BTZ combination groups). On the third day after modeling, oral administration of PBS, BBA (5 mg/kg) and BTZ (1 mg/kg) was performed twice a week, while combination therapy was administered every other day.

[3] = molecular target: T1, c-Maf protein (Homo sapiens, UniProt O75444); assay: Microscale thermophoresis (MST) binding to c-Maf protein; settings: labelled purified c-Maf protein; read-out: MST dissociation constant (Kd)
T1 construct: made in house; host or cells: prokaryotic (pET-28a vector)
T1 sequence (O75444 1-373): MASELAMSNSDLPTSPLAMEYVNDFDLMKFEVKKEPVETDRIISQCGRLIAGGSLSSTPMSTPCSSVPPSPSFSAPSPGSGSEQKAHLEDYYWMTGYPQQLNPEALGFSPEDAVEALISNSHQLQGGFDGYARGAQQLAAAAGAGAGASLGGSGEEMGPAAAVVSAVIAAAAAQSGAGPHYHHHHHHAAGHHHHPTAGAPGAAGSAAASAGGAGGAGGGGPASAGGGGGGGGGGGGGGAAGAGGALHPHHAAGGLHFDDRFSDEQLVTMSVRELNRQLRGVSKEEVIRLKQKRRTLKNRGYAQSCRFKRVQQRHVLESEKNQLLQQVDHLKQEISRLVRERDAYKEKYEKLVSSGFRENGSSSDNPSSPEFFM
Protocol: To determine if the screened compound interacts with the c-Maf protein, we used a MonolithTM RED-NHS second generation protein labelling kit (NanoTemper Germany) to fluorescently label 10 µM of purified c-Maf protein. We then mixed various concentrations of the drug with an equal concentration of c-Maf protein and incubated the mixture for 5 min at room temperature. The mixture was then aspirated with a capillary tube and the binding capacity was measured using a new generation biomolecular interaction assay (NanoTemper Germany). The Kd values were calculated using analytical software.

[4] = molecular target: T1, c-Maf protein; assay: Surface plasmon resonance (SPR) binding to c-Maf protein; settings: values given in mM; read-out: SPR dissociation constant (Kd)
[5] = system: ARP1 cells; assay: MTT proliferation assay, ARP1 cells; assay type: cell-based, human; settings: ARP1 WT; Table 2 prints no cell line, its BBA value equals the ARP1 IC50 of b29

| Molecule | Expression of c-Maf, Ki67, RNA Pol II, Mtbp, c-Myc and c-Maf/RNA Pol II co-localization in tumors [1] | Survival time of 5TMM3VT mice [2] | Kd [3] [mM] | Kd [4] [mM] | MTT IC50 [5] |
| --- | --- | --- | --- | --- | --- |
| CC(C)C[C@H](NC(=O)[C@H](Cc1ccccc1)NC(=O)c1cnccn1)B(O)O [BTZ, bortezomib] | inhibited | significantly improved |  |  |  |
| Chlorophenylacetamide |  |  | 0.555 | 3.31 | Unstable |
